Ends that are not written are not given here.
Assays:
[1] = test system: human embryonic kidney cells (HEK293T)
Procedure: The cytotoxicity of 73 synthetic peptides was evaluated using four human cell lines: human pancreatic ductal epithelial cells (HPNE), human embryonic kidney cells (HEK293T), human umbilical vein endothelial cells (HUVEC), and human bronchial epithelial cells (BEAS-2B). When cell density reached 70% confluence, the complete culture medium was replaced with serum-free maintenance medium, and peptides were added at a final concentration of 100 μM for 36 h. Control groups received only serum-free maintenance medium without peptides. Cell proliferation was assessed using the CCK-8 assay kit (Solarbio, CA1210) according to the manufacturer’s instructions.

[2] = test system: human bronchial epithelial cells (BEAS-2B)
[3] = Electronic tongue analysis (Taste-Sensing System SA 402B); parameters: unit not given here; conditions: reference solution 30 mM KCl + 0.3 mM tartaric acid as baseline, first measurement excluded; for Umami: sensor AAE; for Umami / Bitter / Sweet: detection threshold 0, room temperature; for Umami / Bitter / Sour / Salty: four replicates; for Sour: detection threshold -13, room temperature; for Salty: detection threshold -6, room temperature; for Sweet: measured five times
In short: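 Room-temperature electronic-tongue readings with five taste probes, calibrated against a reference of 30 mM KCl and 0.3 mM tartaric acid. Samples at 0.1 mg/mL and 1.0 mg/mL were measured four times, sweetness five times, and the first run was dropped. Detection cut-offs were sour −13, salty −6, others 0.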

[4] = test system: human pancreatic ductal epithelial cells (HPNE)
[5] = test system: human umbilical vein endothelial cells (HUVEC)

Substance | Average cell viability, HEK293T [1] | Cell viability, HEK293T, Data1 [1] | Cell viability, HEK293T, Data2 [1] | Cell viability, HEK293T, Data3 [1] | Average cell viability, BEAS-2B [2] | Cell viability, BEAS-2B, Data1 [2] | Cell viability, BEAS-2B, Data2 [2] | Cell viability, BEAS-2B, Data3 [2] | Umami ([3]; peptide 0.1 mg/mL) | Umami ([3]; peptide 1 mg/mL) | Bitter ([3]; sensor C00, peptide 0.1 mg/mL) | Bitter ([3]; sensor C00, peptide 1 mg/mL) | Sour ([3]; sensor CA0, peptide 0.1 mg/mL) | Sour ([3]; sensor CA0, peptide 1 mg/mL) | Salty ([3]; sensor CT0, peptide 0.1 mg/mL) | Salty ([3]; sensor CT0, peptide 1 mg/mL) | Sweet ([3]; sensor GL1, peptide 0.1 mg/mL) | Sweet ([3]; sensor GL1, peptide 1 mg/mL) | Average cell viability, HPNE [4] | Cell viability, HPNE, Data1 [4] | other results
SKKEV [TaPep65] | 97.48 | 94.54 | 99.27 | 98.61 | 100.70 | 99.80 | 89.83 | 112.46 | 1.85 | -4.04 | 7.27 | 4.02 | -3.95 | 10.48 | -17.33 | 11.34 | 2.66 | -3.79 | 94.98 | 94.04 | Cell viability, HPNE, Data2 [4]: 105.12; Cell viability, HPNE, Data3 [4]: 85.76; Average cell viability, HUVEC [5]: 96.89; Cell viability, HUVEC, Data1 [5]: 105.14; Cell viability, HUVEC, Data2 [5]: 94.76; Cell viability, HUVEC, Data3 [5]: 90.77
SLEYEFK [TaPep38] | 98.90 | 94.16 | 101.26 | 101.26 | 103.09 | 93.12 | 112.36 | 103.79 | 2.66 | -3.92 | 7.67 | 3.12 | -5.92 | 9.17 | -19.89 | 10.85 | 7.68 | -5.11 | 96.57 | 86.36 | Cell viability, HPNE, Data2 [4]: 94.14; Cell viability, HPNE, Data3 [4]: 109.22; Average cell viability, HUVEC [5]: 107.74; Cell viability, HUVEC, Data1 [5]: 112.64; Cell viability, HUVEC, Data2 [5]: 110.32; Cell viability, HUVEC, Data3 [5]: 100.27
SLEYLP [TaPep35] | 98.64 | 104.29 | 94.35 | 97.29 | 109.54 | 106.58 | 102.99 | 119.04 | 1.93 | -4.82 | 7.64 | 2.77 | -3.84 | 12.93 | -20.10 | 10.87 | 8.65 | -7.23 | 109.88 | 105.12 | Cell viability, HPNE, Data2 [4]: 118.20; Cell viability, HPNE, Data3 [4]: 106.32; Average cell viability, HUVEC [5]: 100.35; Cell viability, HUVEC, Data1 [5]: 100.75; Cell viability, HUVEC, Data2 [5]: 100.03; Cell viability, HUVEC, Data3 [5]: 100.27
SNDPVA [TaPep71] | 97.98 | 102.11 | 95.68 | 96.15 | 108.14 | 100.40 | 109.77 | 114.26 | 1.39 | -5.94 | 7.30 | 4.11 | -2.77 | 14.75 | -20.93 | 9.59 | 5.63 | -5.65 | 94.64 | 86.86 | Cell viability, HPNE, Data2 [4]: 82.76; Cell viability, HPNE, Data3 [4]: 114.31; Average cell viability, HUVEC [5]: 96.51; Cell viability, HUVEC, Data1 [5]: 91.41; Cell viability, HUVEC, Data2 [5]: 97.95; Cell viability, HUVEC, Data3 [5]: 100.19
STGTIR [TaPep51] | 100.60 | 100.60 | 99.65 | 101.55 | 98.34 | 100.20 | 97.01 | 97.81 | 3.88 | -2.27 | 9.91 | 7.16 | -8.80 | 5.93 | -19.53 | 8.48 | 12.64 | -1.16 | 102.86 | 115.31 | Cell viability, HPNE, Data2 [4]: 89.05; Cell viability, HPNE, Data3 [4]: 104.23; Average cell viability, HUVEC [5]: 103.43; Cell viability, HUVEC, Data1 [5]: 102.66; Cell viability, HUVEC, Data2 [5]: 96.59; Cell viability, HUVEC, Data3 [5]: 111.04

Source: publication PMC12543283, “TastepepAI: An artificial intelligence platform for taste peptide de novo design” (PLOS Computational Biology, 2025)
